Earlier results on one compound are cited in patent publication US10286065B2 (priority 2014, dated 2019).

Consider `CCC(=O)O[C@]1(C(=O)SCF)[C@H](C)C[C@H]2[C@@H]3C[C@H](F)C4=CC(=O)C=C[C@]4(C)[C@@]3(F)[C@@H](O)C[C@@]21C` [Fluticasone propionate], for which, where the note is “dimethyl sulfoxide and dimethylformamide”, the “solubility in dimethyl sulfoxide and dimethylformamide” value is “freely soluble”. In addition, the “solubility in methanol and 95% ethanol” value (methanol and 95% ethanol) is “slightly soluble”. For the same compound, the solubility in water entry (water) was “practically insoluble”.
